Patent publication US20220047598A1, “Use of Casein Kinase 1 Inhibitors For Treating Vascular Diseases” (Qanatpharma AG, priority 2018, published 2022)
pIC50: −log10 of the molar value. Entries after “also recorded” stand apart in the source; their conditions may differ.

Legend:
[1] = test system: mTNF reverse signaling in cremaster skeletal muscle resistance arteries; assay: sTNFR1-Fc-stimulated vasoconstriction / mTNF reverse signaling in cremaster resistance arteries; set-up: species or system mouse
Method: (§1) Referring to FIG. 1, microvascular smooth muscle cells were cultured form mouse mesenteric arteries and ERK1/2 phosphorylation was assessed by standard western blotting. Murine cremaster skeletal muscle resistance arteries were assessed by pressure myography. mTNF reverse signaling was induced by the intrinsically active TNF type I receptor construct, sTNFR1-Fc.
(§2) Referring to FIG. 3, mouse cremaster skeletal muscle resistance arteries were isolated and cannulated for pressure myography. Stepwise increases in transmural pressure (20-100 mmHg in 20 mmHg steps) elicit myogenic vasoconstriction. […] (FIG. 3d) CKI-7 is not effective in the absence of TNF signaling (i.e., TNF knockout arteries, TNF KO). (FIG. 3e) Phenylephrine-induced vasoconstriction in TNF KO arteries is not affected by CKI-7.

[2] = test system: mouse cremaster skeletal muscle resistance arteries; assay: Phenylephrine (agonist)-induced vasoconstriction in isolated cremaster resistance arteries; conditions: for phenylephrine-induced vasoconstriction (vessel health): wild-type arteries treated in vitro
[3] = test system: mTNF reverse signaling (ERK1/2 phosphorylation) in mesenteric vascular smooth muscle cells; assay: ERK1/2 phosphorylation by western blot in microvascular smooth muscle cells cultured from mouse mesenteric arteries; format: cell-based; conditions: for sTNFR1-Fc-induced ERK1/2 phosphorylation: microvascular smooth muscle cells, inhibitor concentration not given
Method: as §1
These findings were verified in cremaster skeletal muscle resistance arteries. […] Importantly, none of the above treatments affected agonist-induced vasoconstriction.
as §2

[4] = test system: ERK1/2 phosphorylation in cremaster resistance arteries; assay: ERK1/2 phosphorylation by western blot in isolated cremaster resistance arteries after pressure myography; set-up: species or system mouse
Excerpt: as §2
Referring to FIG. 5, mouse cremaster skeletal muscle resistance arteries were isolated at mid-rest phase (ZT7) or mid-active phase (ZT19) and cannulated for pressure myography. One-step increases in transmural pressure (60 to 100 mmHg) elicit myogenic vasoconstriction. […] (FIG. 5c) Cremaster muscle resistance arteries underwent pressure myography and western blotting subsequently assessed ERK1/2 phosphorylation. […] (FIG. 5d) Representative western blot. (FIG. 5e) Resting diameter of the vessels is not affected by PF-670462. (FIG. 5f) Prior to administration of PF-670462, vessel health is intact as shown by robust vasoconstriction to phenylephrine. […] (FIG. 5h) Vessel health, indicated by robust phenylephrine-induced vasoconstriction, is not affected by PF-670462 administration.

[5] = test system: mouse cremaster skeletal muscle resistance arteries; assay: Pressure myography of isolated cremaster skeletal muscle resistance arteries: myogenic responsiveness, compound applied in vitro; conditions: for dose dependence of reduction in myogenic responsiveness: dose-response in vitro, n=4-6 vessels per dose
Method: as §1
Referring to FIG. 3, mouse cremaster skeletal muscle resistance arteries were isolated and cannulated for pressure myography. Stepwise increases in transmural pressure (20-100 mmHg in 20 mmHg steps) elicit myogenic vasoconstriction.
Referring to FIG. 4, mouse cremaster skeletal muscle resistance arteries were isolated and cannulated for pressure myography. Stepwise increases in transmural pressure (20-100 mmHg in 20 mmHg steps) elicit myogenic vasoconstriction.
Referring to FIG. 5, mouse cremaster skeletal muscle resistance arteries were isolated at mid-rest phase (ZT7) or mid-active phase (ZT19) and cannulated for pressure myography. One-step increases in transmural pressure (60 to 100 mmHg) elicit myogenic vasoconstriction. […] (FIG. 5c) Cremaster muscle resistance arteries underwent pressure myography and western blotting subsequently assessed ERK1/2 phosphorylation. […] (FIG. 5d) Representative western blot.
Referring to FIG. 6a to c, mice underwent myocardial infarction (ligation of the left-anterior descending coronary artery) or sham surgery. […] Cremaster skeletal muscle resistance arteries were isolated and cannulated for pressure myography.

[6] = Mean arterial blood pressure after acute injection; format: in vivo, mouse; conditions: acute injection 30 mg/kg intraperitoneal, n=3 per group
[7] = test system: cremaster skeletal muscle resistance arteries; assay: In vivo treatment of naive mice, then pressure myography of cremaster arteries; set-up: species or system mouse; conditions: for myogenic responsiveness: naive mice, 24 hrs later, ZT7
Method: Referring to FIG. 6d to f, naive mice were treated with PF-670462 (30-50 mg/kg dissolved in 200 μL water, intraperitoneal injection) or vehicle (200 μL water). 24 hrs later, in mid-rest phase (ZT7), cremaster skeletal muscle resistance arteries underwent pressure myography. […] (FIG. 6e) Phenylephrine-induced vasoconstriction is not altered by in vivo application of PF-670462.

CK1D/E = conditions: read-out: published IC50; cited from earlier work
[8] = test system: heart failure (myocardial infarction) mice; assay: Chronic treatment of mice after myocardial infarction (heart failure) or sham surgery; format: in vivo, mouse; conditions: 7 wks
Method: Referring to FIG. 6g to j, following myocardial infarction or sham surgery, mice were chronically treated with PF-670462 (30 mg/kg, intraperitoneal injection) or vehicle (DMSO) for 7 wks (5 days/wk). […] (FIG. 6h) HF-induced elevations in myogenic tone are normalized by chronic treatment with PF-670462. (FIG. 6i)
Phenylephrine-induced vasoconstriction is intact with chronic PF-670462 treatment. Reduced tone at lower concentrations of phenylephrine in the PF-670462-treated group is the result of changes in resting myogenic tone. (FIG. 6j) Cardiac output, the quantification of blood outflow from the heart assessed with echocardiography, is elevated with chronic PF-670462 treatment.

[9] = test system: mTNF reverse signaling in human embryonic kidney (HEK) cells; assay: mTNF reverse signaling (ERK1/2 phosphorylation) in transfected HEK cells stimulated with TNF antibody; format: cell-based; conditions: HEK cells transfected 24 hrs, stimulated 5 min
Excerpt: Importantly, the cytoplasmic tail of mTNF contains the casein kinase 1 (CK1) recognition site (S(P)-X-X-S) that is removed in Trunc TNF, indicating the necessity for CK1 binding in mTNF reverse signaling.

[10] = scavenging TNF; cited from earlier work
[11] = test system: skeletal muscle resistance arteries; conditions: scavenging TNF; cited from earlier work
[12] = in vitro application, concentration not given
[13] = chronic treatment 30 mg/kg intraperitoneal

## NCCNS(=O)(=O)c1ccc(Cl)c2ccncc12 [CKI-7]
[1]; cremaster arteries, in vitro application
  sTNFR1-Fc-induced mTNF reverse signaling: abrogates
[1]; sTNFR1-Fc 100 ng/mL
  sTNFR1-Fc-stimulated vasoconstriction: prevented
[2]; TNF KO arteries
  phenylephrine-induced vasoconstriction in TNF KO arteries: not affected
[2]
  phenylephrine-induced vasoconstriction (vessel health): remains intact
[3]; mesenteric vascular smooth muscle cells, inhibitor 1 μM
  ERK1/2 phosphorylation in response to sTNFRI-Fc: inhibited
[3]
  sTNFR1-Fc-induced ERK1/2 phosphorylation: abolished
[4]; isolated cremaster resistance arteries after pressure myography
  sTNFR1-Fc-stimulated ERK1/2 phosphorylation: inhibited
[5]; 10 μM in vitro, transmural pressure 20-100 mmHg in 20 mmHg steps
  myogenic responsiveness: reduces myogenic responsiveness
[5]; TNF−/− (TNF KO) arteries, in vitro
  myogenic responsiveness in TNF knockout arteries: not effective
[5]
  dose dependence of reduction in myogenic responsiveness: dose-dependent reductions
[5]; [12]
  myogenic responsiveness: reduces myogenic responsiveness

## Nc1nccc(-c2c(-c3ccc(F)cc3)ncn2C2CCCCC2)n1 [PF-670462]
[2]; arteries from HF and sham mice, 550 nM in vitro
  phenylephrine-induced vasoconstriction: intact
[2]
  phenylephrine-induced vasoconstriction (vessel health): intact; also recorded: not affected
[6]
  mean arterial blood pressure (MAP): reduces mean arterial blood pressure
[3]
  sTNFR1-Fc-induced ERK1/2 phosphorylation: abolished
[7]; 30 mg/kg intraperitoneal
  myogenic responsiveness: reduce myogenic responsiveness
[7]; 50 mg/kg intraperitoneal
  myogenic responsiveness: reduce myogenic responsiveness
[7]; applied in vivo, dose not given
  myogenic responsiveness in isolated cremaster arteries: reduced myogenic responsiveness
[7]; in vivo application 30-50 mg/kg intraperitoneal
  phenylephrine-induced vasoconstriction: not altered
CK1D/E
  pIC50: 7.85 to 8.11
[4]; cremaster arteries isolated at ZT7 or ZT19
  ERK1/2 phosphorylation, ZT7 versus ZT19: reduces ERK1/2 phosphorylation to a greater extent during the rest phase (ZT7)
[5]; 550 nM in vitro
  myogenic responsiveness: reduces myogenic responsiveness
[5]; 550 nM in vitro in bath, 8 weeks post myocardial infarction
  myogenic responsiveness in arteries from HF mice: normalizes myogenic responsiveness
[5]; 550 nM in vitro in bath, sham arteries
  myogenic tone in sham-operated mice: does not affect myogenic tone
[5]; 550 nM in vitro, 30 minutes, both HF and sham groups
  myogenic tone in arteries from HF and sham mice: attenuated to same level
[5]; 550 nM in vitro, repeated replacements of the incubating buffer
  reversibility of the reduction in myogenic responsiveness: reversible
[5]; 10 μM in vitro, ZT7, one-step pressure 60 to 100 mmHg
  myogenic responsiveness at mid-rest phase: reduces myogenic responsiveness only during the rest phase (ZT7)
[5]; 10 μM in vitro, ZT19, one-step pressure 60 to 100 mmHg
  myogenic responsiveness at mid-active phase: not during the active phase (ZT19)
[5]; ZT7, n=4-7 vessels per dose
  dose dependence of reduction in myogenic tone at mid-rest phase: dose-dependently reduces myogenic tone
[5]; ZT7/ZT19 arteries
  resting diameter of the vessels: not affected
[5]; ZT7/ZT19 arteries, before pressure stimulation
  vessel dilation: not affected
[5]
  dose dependence of reduction in myogenic responsiveness: dose-dependent decreases
[5]; [12]
  myogenic responsiveness: reduces myogenic responsiveness
[5]; wild-type (WT) arteries, compared with TNF knockout
  myogenic responsiveness in wild-type arteries: inhibits myogenic responsiveness
[8]; 30 mg/kg intraperitoneal, 5 days/wk
  HF-induced elevations in myogenic tone: normalized
[8]; [13]
  cardiac output (echocardiography): elevated
  phenylephrine-induced vasoconstriction: intact

## Nc1ncnc2c1c(COc1cccc(Cl)c1)nn2C1CCOCC1 [PF-4800567]
[2]; 30 μM dose, corrected to baseline tone
  reduction in phenylephrine-induced vasoconstriction after correction to baseline tone: remains after correction to baseline tone
[2]; arteries treated at the 30 μM dose
  phenylephrine-induced vasoconstriction: reduced
[5]; 30 μM in vitro
  myogenic responsiveness: abrogates myogenic responsiveness
[5]
  dose dependence of reduction in myogenic responsiveness: dose-dependent reduction
[5]; fold greater than the IC50
  concentration inhibiting myogenic responses relative to the IC50: ~1000 ×

## Adalimumab
[9]
  mTNF reverse signaling (ERK1/2 phosphorylation): not stimulated unless the HEK cells express a tumour necrosis factor (TNF) plasmid construct

## Etanercept
[10]
  systemic blood pressure: reduces systemic blood pressure
[11]
  skeletal muscle resistance artery myogenic responsiveness: attenuates skeletal muscle resistance artery myogenic responsiveness
